This is an account of results in patent US20090054421A1, “Pyrimidothiophene Compounds Having HSP90 Inhibitory Activity” (Vernalis R & D Limited, priority 2005, published 2009).

T1 sequence (P08238 whole entry): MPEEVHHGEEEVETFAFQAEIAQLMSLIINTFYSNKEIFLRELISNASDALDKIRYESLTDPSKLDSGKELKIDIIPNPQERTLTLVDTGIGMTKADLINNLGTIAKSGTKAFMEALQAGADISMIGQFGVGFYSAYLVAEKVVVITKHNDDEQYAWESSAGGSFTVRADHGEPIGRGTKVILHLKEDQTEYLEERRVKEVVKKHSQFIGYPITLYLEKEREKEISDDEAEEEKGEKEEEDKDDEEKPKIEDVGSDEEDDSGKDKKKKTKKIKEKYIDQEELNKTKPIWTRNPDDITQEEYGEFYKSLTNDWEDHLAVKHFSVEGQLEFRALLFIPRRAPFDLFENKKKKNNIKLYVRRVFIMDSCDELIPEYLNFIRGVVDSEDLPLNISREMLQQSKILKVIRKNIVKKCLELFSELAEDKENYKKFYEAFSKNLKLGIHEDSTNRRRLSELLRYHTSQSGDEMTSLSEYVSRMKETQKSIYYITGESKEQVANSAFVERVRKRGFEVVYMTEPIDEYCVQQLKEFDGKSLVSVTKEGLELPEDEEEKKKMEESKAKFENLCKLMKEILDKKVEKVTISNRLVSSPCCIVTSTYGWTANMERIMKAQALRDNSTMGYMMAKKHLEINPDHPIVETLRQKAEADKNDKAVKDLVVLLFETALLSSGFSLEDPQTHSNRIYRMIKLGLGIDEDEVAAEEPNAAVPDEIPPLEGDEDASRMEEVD

This assay has as its target T1, human full-length HSP90 (Homo sapiens, UniProt P08238).
T1 construct: E. coli expressed human full-length HSP90 protein, purified >95%; made in house; host or cells: E. coli
The experiment in a line: Fluorescence polarization assay (competitive displacement of fluorescein-labelled probe from HSP90). In kind it is binding. The settings on record: activity range A or B. From the text:
Fluorescence Polarization Assay
Fluorescence polarization {also known as fluorescence anisotropy} measures the rotation of a fluorescing species in solution, where the larger molecule the more polarized the fluorescence emission. When the fluorophore is excited with polarized light, the emitted light is also polarized. The molecular size is proportional to the polarization of the fluorescence emission.
The fluoroscein-labelled probe—
binds to HSP90 {full-length human, full-length yeast or N-terminal domain HSP90} and the anisotropy {rotation of the probe:protein complex} is measured.
Test compound is added to the assay plate, left to equilibrate and the anisotropy measured again. Any change in anisotropy is due to competitive binding of compound to HSP90, thereby releasing probe.
Chemicals are of the highest purity commercially available and all aqueous solutions are made up in AR water. • 1) Costar 96-well black assay plate #3915 • 2) Assay buffer of (a) 100 mM Tris pH7.4; (b) 20 mM KCl; (c) 6 mM MgCl2. Stored at room temperature. • 3) BSA (bovine serum albumen) 10 mg/ml (New England Biolabs # B9001S) • 4) 20 mM probe in 100% DMSO stock concentration. Stored in the dark at RT. Working concentration is 200 nM diluted in AR water and stored at 4° C., Final concentration in assay 80 nM. • 5) E. coli expressed human full-length HSP90 protein, purified >95% (see, e.g., Panaretou et al., 1998) and stored in 50 μL aliquots at −80° C.
• 1) Add 100 μl 1× buffer to wells 11A and 12A (=FP BLNK) • 2) Prepare assay mix—all reagents are kept on ice with a lid on the bucket as the probe is light-sensitive.
• 3) Aliquot 100 μl assay mix to all other wells • 4) Seal plate and leave in dark at room temp for 20 minutes to equilibrate Compound Dilution Plate—1×3 dilution series • 1) In a clear 96-well v-bottom plate—{# VWR 007/008/257} add 10 μl 100% DMSO to wells B1 to H11 • 2) To wells A1 to A11 add 17.5 μl 100% DMSO • 3) Add 2.5 μl cpd to A1. This gives 2.5 mM {50×} stock cpd—assuming cpds 20 mM. • 4) Repeat for wells A2 to A10. Control in columns 11 and 12. • 5) Transfer 5 μl from row A to row B—not column 12. Mix well. • 6) Transfer 5 μl from row B to row C. […] In column 11 {provides standard curve} only add compound B11-H11. Add 2 μl of 100 mM standard cpd to wells B12-H12 {is positive control} • 13) The Z′ factor is calculated from zero controls and positive wells. It typically gives a value of 0.7-0.9.
The compounds tested in the above assay were assigned to one of two activity ranges, namely A=<10 μM; B=>10 μM, and those assignments are reported above.
Turning to `CC(C)(C)NC(=O)c1cc2c(C(=NOCCN3CCCC3=O)c3ccc4c(c3)OCO4)nc(N)nc2s1` [Example 58], the IC50 was less than 10 µM.
Molecule `CCN(CC)CCON=C(c1ccc2c(c1)OCO2)c1nc(N)nc2sc(C(=O)NC3CC3)cc12` [Example 59] registered an IC50 of less than 10 µM.
Consider `Nc1nc(C(=NOCCN2CCCC2)c2ccc3c(c2)OCO3)c2cc(C(=O)NC3CC3)sc2n1` [Example 60], for which the IC50 was less than 10 µM.
Regarding `Nc1nc(C(=NOCCN2CCCC2=O)c2ccc3c(c2)OCO3)c2cc(C(=O)NC3CC3)sc2n1` [Example 61], the IC50 is less than 10 µM.
`CCNC(=O)c1cc2c(C(=NOCCN(CC)CC)c3ccc(OC)c(OC)c3)nc(N)nc2s1` [Example 62]: the IC50 was less than 10 µM.
For `CN(C)CCNC(=O)c1cc2c(C(=NOCCN3CCCC3)c3ccc4c(c3)OCO4)nc(N)nc2s1` [Example 63] the value was more than 10 µM; for `CN(C)CCNC(=O)c1cc2c(C(=NOCCN3CCCC3=O)c3ccc4c(c3)OCO4)nc(N)nc2s1` [Example 64], more than 10 µM; for `CCN(CC)CCON=C(c1ccc2c(c1)OCO2)c1nc(N)nc2sc(C(=O)NCCN(C)C)cc12` [Example 65], more than 10 µM.
Consider `CCNC(=O)c1cc2c(C(=NOCCN3CCCC3=O)c3ccc(-n4cccn4)cc3)nc(N)nc2s1` [Example 67], for which the IC50 was less than 10 µM.
As for `CCNC(=O)c1cc2c(C(=NOCCN3CCCC3)c3ccc(-n4cccc4)cc3)nc(N)nc2s1` [Example 68], the figure is more than 10 µM; as for `CCNC(=O)c1cc2c(C(=NOCCN3CCCC3)c3ccc(-n4cccn4)cc3)nc(N)nc2s1` [Example 69], more than 10 µM; as for `CCNC(=O)c1cc2c(C(=NOCCN(CC)CC)c3ccc(-n4cccc4)cc3)nc(N)nc2s1` [Example 70], more than 10 µM.
`CCNC(=O)c1cc2c(C(=NOCCN3CCCC3=O)c3ccc(-n4cccc4)cc3)nc(N)nc2s1` [Example 71] had an IC50 of more than 10 µM.
On to `CCNC(=O)c1cc2c(C(=NOCCN3CCCC3)c3ccc(N4CCCC4=O)cc3)nc(N)nc2s1` [Example 72], for which the IC50 was less than 10 µM.
In turn, `CCNC(=O)c1cc2c(C(=NOCCN(CC)CC)c3ccc(N4CCCC4=O)cc3)nc(N)nc2s1` [Example 73] displayed an IC50 of more than 10 µM.
`CCN(CC)CCON=C(c1ccc2c(c1)OCO2)c1nc(N)nc2sc(C(=O)NCC(F)(F)F)cc12` [Example 74] returned an IC50 of less than 10 µM.
`Nc1nc(C(=NOCCN2CCCC2)c2ccc3c(c2)OCO3)c2cc(C(=O)NCC(F)(F)F)sc2n1` [Example 75] showed an IC50 of less than 10 µM.
For `Nc1nc(C(=NOCCN2CCCC2=O)c2ccc3c(c2)OCO3)c2cc(C(=O)NCC(F)(F)F)sc2n1` [Example 76] the value was less than 10 µM; for `CCNC(=O)c1cc2c(C(=NOCCN3CCCC3=O)c3ccc(N4CCCC4=O)cc3)nc(N)nc2s1` [Example 77], less than 10 µM.
As for `CCNC(=O)c1cc2c(C(=NO)c3ccc(N4CCCC4=O)cc3)nc(N)nc2s1` [Example 78], the figure is less than 10 µM; as for `CCNC(=O)c1cc2c(C(=NO)c3ccc(-n4cccc4)cc3)nc(N)nc2s1` [Example 80], less than 10 µM.
Take `CCNC(=O)c1cc2c(C(=NO)c3ccc(-n4cccn4)cc3)nc(N)nc2s1` [Example 81]: the IC50 was less than 10 µM.
